Legend:
full-length human Hpk1 = molecular target: T1, full-length human Hpk1 (Homo sapiens, UniProt Q92918); assay: HPK1 kinase assay (ADP Glo Kinase Assay); type: biochemical; conditions: full-length human GST-Hpk1, ADP Glo, 75 μM ATP; for IC50: read-out: Hpk1 biochemical (pIC50) (converted)
T1 construct: A recombinant fusion protein consisting of full-length human Hpk1; GST (N)
Description: Pharmacological Part HPK1 Kinase Assay
A recombinant fusion protein consisting of full-length human Hpk1 with an N-terminal Glutatione S-transferase (GST) tag was produced in a baculovirus/insect cell expression system. GST-Hpk1 protein was purified from cell lysates by glutathione sepharose affinity chromatography. Kinase inhibition was determined using the ADP Glo™ Kinase Assay kit (Promega, V9101). Test compounds were prepared by serial dilution in dimethyl sulfoxide (DMSO) and 0.1 μl of each dilution was spotted onto a 384-well white Proxiplate (Perkin Elmer, 6008289). 8 μl of kinase assay buffer (40 mM Tris pH 7.5, 2 mM dithiothreitol (DTT), 0.05% Bovine Serum Albumin, 5 mM MgCl2) containing Hpk1 protein was transferred to each well and incubated for 30-45 minutes at room temperature. The enzymatic reaction was started by adding 2 μl of kinase assay buffer containing 75 μM ATP. After 120 minutes, the reaction was stopped by adding 3 μl of ADP Glo™ reagent (Promega, V9101) and incubating 45 minutes at room temperature.

Hpk1 = Hpk1 (Homo sapiens, UniProt Q92918); assay: SLP76 phosphorylation assay (SLP76 pS376 in lysates of HEK293 cells engineered to express Hpk1 and SLP76); type: cell-based; conditions: HEK293 cells expressing Hpk1 and SLP76, 4 hours incubation; for IC50: read-out: pSLP76 (HEK293) (pIC50) (converted)
Description: SLP76 Phosphorylation Assay
Hpk1 inhibition in cells was determined by detection of SLP76 phosphorylation at S376 in lysates from HEK293 cells engineered to express Hpk1 and SLP76. Serial dilutions of test compounds were prepared in cell culture medium and 20 μl was transferred into each well of a 96-well plate containing HEK293 cells in 180 μl of culture medium. After incubation for 4 hours at 37° C./5% CO2, the culture medium was removed, plates were put on ice and cells washed with cold Minimal Essential Medium before lysing in 90 μl of cold Mammalian Protein Extraction Reagent (Thermo Scientific, 78501) for 30 minutes on ice. The cell lysates were transferred to another 96-well plate, centrifuged 10 minutes at 3000 rcf (4° C.) and 30 μl transferred to a 96-well High-bind plate (MSD, L15XB-3). After coating overnight at 4° C., the cell lysate was removed, wells were washed with base buffer (TBS, 0.2% Tween-20), and blocking solution (base buffer containing 3% MSD blocker A) was added to each well for 1 hour at room temperature. The blocking solution was removed, the wells were washed with base buffer, and detection antibody (SLP76 pS376) was added in 25 μl base buffer containing 1% MSD blocker A to each well. After a 2 h incubation at room temperature, the detection antibody was removed, wells were washed four times with base buffer, 25 μl SULFO-TAG labeled goat anti-rabbit secondary antibody (MSD, R32AB-1) in base buffer containing 1% MSD blocker A was added to each well and left for 1 hour at room temperature. Wells were washed 4 times with base buffer, 150 μl Read Buffer T was added to each well, and the plates were read in a Mesoscale plate reader (MSD). IC50 values were determined by curve-fitting the electrochemiluminescent signals obtained from the lysates of HEK293 cells expressing Hpk1 and SLP76 treated with test compounds at various concentrations minus the signal obtained from HEK293 cells expressing SLP76 only.

T1 sequence (Q92918 whole entry, the tested form may be a part): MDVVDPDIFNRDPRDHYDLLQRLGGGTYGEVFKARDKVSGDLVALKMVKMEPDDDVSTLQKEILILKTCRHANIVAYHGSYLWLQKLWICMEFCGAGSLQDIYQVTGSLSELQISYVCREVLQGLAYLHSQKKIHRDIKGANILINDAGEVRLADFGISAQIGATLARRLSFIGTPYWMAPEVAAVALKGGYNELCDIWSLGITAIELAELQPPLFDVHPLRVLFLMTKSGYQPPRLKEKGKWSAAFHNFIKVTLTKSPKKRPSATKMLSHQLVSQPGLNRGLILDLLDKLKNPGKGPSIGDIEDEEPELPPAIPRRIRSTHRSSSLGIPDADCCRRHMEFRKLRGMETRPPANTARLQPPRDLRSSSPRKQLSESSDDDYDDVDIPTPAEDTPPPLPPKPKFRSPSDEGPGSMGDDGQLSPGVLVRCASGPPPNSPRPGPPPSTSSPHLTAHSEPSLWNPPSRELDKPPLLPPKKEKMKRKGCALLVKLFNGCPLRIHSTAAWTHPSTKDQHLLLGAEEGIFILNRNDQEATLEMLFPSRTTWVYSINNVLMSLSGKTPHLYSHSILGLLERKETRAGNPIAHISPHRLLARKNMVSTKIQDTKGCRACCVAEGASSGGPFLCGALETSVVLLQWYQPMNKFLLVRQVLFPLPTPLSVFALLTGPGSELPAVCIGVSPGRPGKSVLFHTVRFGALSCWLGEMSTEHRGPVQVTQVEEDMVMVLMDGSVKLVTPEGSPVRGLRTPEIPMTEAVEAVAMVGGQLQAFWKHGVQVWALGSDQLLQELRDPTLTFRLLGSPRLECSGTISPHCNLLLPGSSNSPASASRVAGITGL
Sequence of Hpk1 (Q92918 whole entry): as the sequence (Q92918 whole entry, the tested form may be a part) above

| Compound | IC50 (full-length human Hpk1) | IC50 (Hpk1) | Hpk1 biochemical (pIC50) (full-length human Hpk1) | pSLP76 (HEK293) (pIC50) (Hpk1) |
| --- | --- | --- | --- | --- |
| Nc1ncc(-c2ccc(C3CCOCC3)c([C@@H]3CCCN3)c2)cc1C1CCS(=O)(=O)CC1 [Co. 102] | 295 nM | > 10000 nM |  |  |
| Nc1ncc(-c2ccc(C3CCOCC3)c([C@@H]3CCCN3)c2)cc1-c1ccnc(C(F)F)c1 [Co. 34] | 17.4 nM | 1820 nM |  |  |
| Nc1ncc(-c2ccc(C3=CCS(=O)(=O)CC3)c([C@@H]3CCCN3)c2)cc1-c1ccnc(F)c1 [Co. 49] | 24 nM | 2510 nM |  |  |
| Nc1ncc(-c2ccc(C3CCOCC3)c([C@@H]3CCCN3)c2)cc1-c1cncnc1 [Co. 3] | 53.7 nM | 5620 nM |  |  |
| Nc1ncc(-c2ccc(C3CCOCC3)c([C@@H]3CCCN3)c2)nc1C(F)(F)F [Co. 53] | 15.8 nM | 977 nM |  |  |
| N#Cc1cc(-c2cc(-c3ccc(C4CCOCC4)c([C@@H]4CCCN4)c3)cnc2N)ccn1 [Co. 61] | 34.7 nM | 3980 nM |  |  |
| Nc1ncc(-c2ccc(C3CCOCC3)c([C@@H]3CCCN3)c2)cc1-c1ccnc(Cl)c1 [Co. 17] | 15.8 nM | 1580 nM |  |  |
| Nc1ncc(-c2ccc(C3COC3)c([C@@H]3CCCN3)c2)cc1-c1ccnc(F)c1 [Co. 54] | 457 nM | > 10000 nM |  |  |
| CC(=O)N1CC=C(c2ccc(-c3cnc(N)c(-c4ccnc(F)c4)c3)cc2[C@@H]2CCCN2)CC1 [Co. 47] | 24.5 nM | 1350 nM |  |  |
| Nc1ncc(-c2ccc(C3CCOCC3)c([C@@H]3CCCN3)c2)cc1-c1cc(F)ncc1F [Co. 31] | 20.4 nM | 1050 nM |  |  |
| CC1(C)COc2ncc(-c3cc(-c4ccc(C5CCOCC5)c([C@@H]5CCCN5)c4)cnc3N)cc21 [Co. 40] | 8.91 nM | 1100 nM |  |  |
| Nc1ncc(-c2ccc(C3CCOCC3)c([C@@H]3CCCN3)c2)cc1C1=CCS(=O)(=O)CC1 [Co. 55] | 95.5 nM | > 10000 nM |  |  |
| Nc1ncc(-c2ccc(C3CCOCC3)c([C@@H]3COCCN3)c2)cc1-c1ccncc1 [Co. 80a] | 14.5 nM | 851 nM |  |  |
| Cn1cc(-c2nc(-c3ccc(C4CCOCC4)c([C@@H]4CCCN4)c3)cnc2N)cn1 [Co. 41] | 4.57 nM | 617 nM |  |  |
| Nc1ncc(-c2ccc(C3CCOCC3)c([C@@H]3CCCN3)c2)cc1-c1nccs1 [Co. 20] | 3.16 nM | 170 nM |  |  |
| C[C@H]1CCN[C@@H]1c1cc(-c2cnc(N)c(-c3ccncc3)c2)ccc1C1CCOCC1 (racemic) [Co. 9] | 42.7 nM | 2140 nM |  |  |
| CS(=O)(=O)N1CC=C(c2ccc(-c3cnc(N)c(-c4ccnc(F)c4)c3)cc2[C@@H]2CCCN2)CC1 [Co. 46] | 35.5 nM | 1020 nM |  |  |

| Compound | IC50 (full-length human Hpk1) | IC50 (Hpk1) | Hpk1 biochemical (pIC50) (full-length human Hpk1) | pSLP76 (HEK293) (pIC50) (Hpk1) |
| --- | --- | --- | --- | --- |
| Nc1ncc(-c2ccc(C3CCOCC3)c([C@H]3C[S@@+]([O-])CCN3)c2)cc1-c1ccnc(F)c1 (single isomer, unassigned) [Compound 15a] | 9330 nM | > 10000 nM |  |  |
| Nc1ncc(-c2ccc(C3CCOCC3)c([C@@H]3CCCN3)c2)cc1Br [Co. 37] | 7.24 nM | 646 nM |  |  |
| CC(C)n1cc(-c2cc(-c3ccc(C4CCOCC4)c([C@@H]4CCCN4)c3)cnc2N)cn1 [Co. 22] | 2.75 nM | 339 nM |  |  |
| CN(C)Cc1cc(-c2cnc(N)c(-c3ccnc(NCCCO)c3)c2)ccc1C1CCOCC1 [Co. 75] | 41.7 nM | 2290 nM |  |  |
| Nc1ncc(-c2ccc(C3CCOCC3)c([C@@H]3CC(F)(F)CN3)c2)cc1-c1ccnc(F)c1 (single isomer, unassigned) [Co. 59] | 77.6 nM | 5620 nM |  |  |
| Nc1ncc(-c2ccc(C3CCSCC3)c([C@@H]3CCCN3)c2)cc1-c1ccnc(F)c1 [Co. 99] | 21.4 nM | 646 nM |  |  |
| Nc1ncc(-c2ccc(C3CCOCC3)c([C@@H]3C[S@+]([O-])CCN3)c2)cc1-c1ccnc(F)c1 (single isomer, unassigned) [Co. 15b] | 200 nM | > 10000 nM |  |  |
| C[C@H]1COC[C@@H](c2cc(-c3cnc(N)c(-c4ccncc4)c3)ccc2C2CCOCC2)N1 (single isomer, unassigned) [Co. 83a] | 44.7 nM | 1350 nM |  |  |
| C[C@H]1CN[C@H](c2cc(-c3cnc(N)c(-c4cnn(C)c4)n3)ccc2C2CCOCC2)CO1 [Co. 90] | 35.5 nM | 1230 nM |  |  |
| Nc1ncc(-c2ccc(C3CCOCC3)c([C@@H]3CC4(CC4)CN3)c2)cc1-c1ccnc(F)c1 (single isomer, unassigned) [Co. 5a] | 10.2 nM | 776 nM |  |  |
| Nc1ncc(-c2ccc(C3CCOCC3)c([C@H]3COCCCN3)c2)cc1-c1ccncc1 (single isomer, unassigned) [Co. 93b] | 18.6 nM | 1230 nM |  |  |
| Nc1ncc(-c2ccc(C3CCOCC3)c(CNC3COC3)c2)cc1-c1ccnc(F)c1 [Co. 105] | 380 nM | > 10000 nM |  |  |
| Nc1ncc(-c2ccc(C3CCOCC3)c([C@@H]3CCCN3)c2)cc1C1CCOCC1 [Co. 95] | 43.7 nM | 2240 nM |  |  |
| Nc1ncc(-c2ccc(C3CCOCC3)c([C@@H]3COCCN3)c2)cc1-c1ccnc(F)c1 [Co. 82] | 8.71 nM | 126 nM |  |  |
| Nc1ncc(-c2ccc([C@H]3CCOC3)c([C@@H]3CCCN3)c2)cc1-c1ccnc(F)c1 (single isomer, unassigned) [Co. 101] | 3.72 nM | 692 nM |  |  |
| Nc1ncc(-c2ccc(N3CCOCC3)c([C@@H]3CCCN3)c2)cc1-c1ccnc(F)c1 [Co. 2] | 41.7 nM | 871 nM |  |  |
| Nc1ncc(-c2ccc(C3CCOCC3)c([C@@H]3CCCN3)c2)cc1-c1ccnc(F)c1 [Co. 1] | 7.59 nM | 380 nM |  |  |

The remaining lines, values ahead:

| IC50 (full-length human Hpk1) | IC50 (Hpk1) | Hpk1 biochemical (pIC50) (full-length human Hpk1) | pSLP76 (HEK293) (pIC50) (Hpk1) | Compound |
| --- | --- | --- | --- | --- |
| 28.2 nM | 490 nM |  |  | Nc1ncc(-c2ccc(C3CCOCC3)c([C@@H]3CCCN3)c2)cc1-c1ccncc1Cl [Co. 30] |
| 89.1 nM | 4680 nM |  |  | CN(C)Cc1cc(-c2cnc(N)c(C(=O)NCCO)c2)ccc1C1CCOCC1 [Co. 110] |
| 24.5 nM | 2000 nM |  |  | Nc1ncc(-c2ccc(C3CCOCC3)c([C@@H]3CCCN3)c2)nc1-c1ccncc1 [Co. 42] |
| 10.2 nM | 316 nM |  |  | Nc1ncc(-c2ccc(C3CCOCC3)c([C@@H]3CCCN3)c2)cc1-c1ccncc1F [Co. 28] |
| 162 nM | 4570 nM |  |  | Nc1ncc(-c2ccc(C3CCOCC3)c([C@@H]3COCCCN3)c2)cc1-c1ccncc1 (single isomer, unassigned) [Co. 93a] |
| 8.13 nM | 912 nM |  |  | Nc1ncc(-c2ccc(C3CCOCC3)c([C@@H]3COCCN3)c2)cc1Br [Co. 78] |
| 38 nM | 1150 nM |  |  | Nc1ncc(-c2ccc(C3CCOCC3)c([C@@H]3COCCN3)c2)cc1Cl [Co. 85] |
| 117 nM | 7590 nM |  |  | Nc1ncc(-c2ccc(C3CCOCC3)c(CN3CCCC3)c2)cc1-c1ccncc1 [Co. 108] |
| 17.8 nM | 1550 nM |  |  | Nc1ncc(-c2ccc(C3CCOCC3)c([C@@H]3CCCN3)c2)cc1-c1cnn2c1CCCC2 [Co. 18] |
|  |  | 6.84 | 5.1 | CC(=O)N1CCC(c2cc(-c3ccc(C4CCOCC4)c([C@@H]4CCCN4)c3)cnc2N)CC1 [Co. 96] |
| 603 nM | > 10000 nM |  |  | Nc1ncc(-c2ccc(C3CCOCC3)c([C@H]3CSCCN3)c2)cc1-c1ccnc(F)c1 (single isomer, unassigned) [Co. 103b] |
| 115 nM | 4370 nM |  |  | Cc1cc(-c2cc(-c3ccc(C4CCOCC4)c(CN(C)C)c3)cnc2N)ccn1 [Co. 70] |
| 186 nM | 8910 nM |  |  | Nc1ncc(-c2ccc(C3CCOCC3)c(-c3cnc[nH]3)c2)cc1-c1ccncc1 [Co. 13] |
| 7.76 nM | 1950 nM |  |  | Nc1ncc(-c2ccc(C3CCOCC3)c([C@@H]3CSCCN3)c2)cc1-c1ccnc(F)c1 (single isomer, unassigned) [Co. 103a] |
| 56.2 nM | 1860 nM |  |  | CN(C)Cc1cc(-c2cnc(N)c(-c3ccnc(NCCO)c3)c2)ccc1C1CCOCC1 [Co. 74] |
| 9.33 nM | 339 nM |  |  | N#Cc1cc(-c2ccc(C3CCOCC3)c([C@@H]3CCCN3)c2)cnc1N [Co. 44] |

— patent US12492194B2, “HPK1 inhibitors” (Janssen Pharmaceutica NV, priority 2019, dated 2025)
